Assay results reported in US10301308B2, “Azetidine derivatives for tau imaging” (Eli Lilly and Company, priority 2015, dated 2019).

Test: Mouse PET/CT time activity curves
Type: in vivo, CD-1 wild type mice
Method: Dynamic Micro-Positron Emission Tomography (mPET) images are obtained from CD-1 wild type mice using 3-(3-[18F]-fluoroazetidin-1-yl)-8-methylbenzo[4,5]imidazo[1,2-a]pyridine. Micro-Computed Tomography (mCT) of each subject is used as anatomical reference for image analysis. Biodistribution of the tracer in brain, muscle, bone, liver, and kidney is assessed by generating Time Activity Curves (TAC) using the fused mPET/mCT images. An INVEON multimodality scanner (Siemens, Germany) is used for mPET/mCT. All animal work is performed in accordance with the University of Sciences Institutional Animal Care & Use Committee-approved procedures.
Animals are anesthetized with 3% isoflurane/97% oxygen and are placed on the scanner bed. A short high-resolution CT scan is first performed for anatomical registration, followed by a 120-minute PET scan. During the PET scan a water heating system is placed underneath the bed to help maintain the body temperature. Within 3 minutes after the beginning of the PET acquisition, the [18F]-labeled compound 3-(3-[18F]-fluoroazetidin-1-yl)-8-methylbenzo[4,5]imidazo[1,2-a]pyridine is administered to the animals via tail vein injection (250 uCi in a total volume of 200 uL saline). A PET image is generated for each minute of the acquisition time. Uptake of the tracer is obtained by visually drawing regions of interest based on the fused PET/CT images, and the corresponding activity values are determined using the INVEON Research Workplace software (Siemens, Germany). All values are represented as percent injected dose per gram (% ID/g).
The mouse PET/CT time activity curves of 3-(4-(2-[18F]-fluoroethyl)piperidin-1-yl)-8-methoxybenzo[4,5]imidazo[1,2-a]pyridine (T821) (See FIG. 9) and of 3-(4-[18F]-fluoropiperidin-1-yl)-8-methoxybenzo[4,5]imidazo[1,2-a]pyridine (T798) (See FIG. 10) are obtained as described in Assay Example 7 (T821 and T798 are recited in US2011/0182812). […] Therefore, when imaging with T821 and/or T798, the undesirable non-tau PET signals from the skull bones could interfere with desired tau signals from the brain cortex. Thus, in addition to the lack of selectivity for T821 and T798, these compounds would further represent poor candidates for human brain tau PET tracers because of the interfering radioactivity signal from bone. […] The advantageous properties of Compound 8 are useful to provide enhanced tau PET imaging in humans. This combination of critical properties was not known and could not have been predicted from existing tau imaging compounds.

[1] = mouse PET/CT time activity curves
[2] = tail vein injection, 120-minute PET scan

bone uptake of radioactivity [1]: negligible radioactivity signal in bone
brain entry compared with [18F]AV-1451 [2]: higher % ID/g than [18F]AV-1451
clearance from brain [2]: cleared quickly
SMILES: Cc1ccc2nc3cc(N4CC([18F])C4)ccn3c2c1 [Compound 8, 3-(3-[18F]-fluoroazetidin-1-yl)-8-methylbenzo[4,5]imidazo[1,2-a]pyridine]
brain uptake compared to T821 and T798 [1]: significantly superior and surprising brain uptake
bone uptake of radioactivity (mouse PET/CT time activity curves, listed as 3-(3-[18F]-Fluoroazetidin-1-yl)-8-methylbenzo[4,5]imidazo[1,2-a]pyridine): no significant uptake of radioactivity in bone tissue
